According to ChEMBL document CHEMBL1201862, “PubChem BioAssay data set” (2004):
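Briefly, cells in 96-well plates were exposed to five compound concentrations for 48 h, and endpoints were estimated by linear interpolation. GI50: concentration for 50% inhibition of growth.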 Active and inactive are the calls of the source. Rule as the data show it: active = GI50 up to about 1.1 µM and inactive = higher.

Columns and labels:
Test in all cases: NCI anticancer screen, dose series, 48 h
786-0 = system: 786-0
A498 = system: A498
A549 = system: A549
ACHN = system: ACHN
BT-549 = system: BT-549
COLO 205 = system: COLO 205
DU-145 = system: DU-145
EKVX = system: EKVX
HCC 2998 = system: HCC 2998
HCT-116 = system: HCT-116
HCT-15 = system: HCT-15
HL-60 = system: HL-60
HOP-62 = system: HOP-62
HOP-92 = system: HOP-92
HT-29 = system: HT-29
Hs-578T = system: Hs-578T
IGROV-1 = system: IGROV-1
K562 = system: K562
KM12 = system: KM12
LOX IMVI = system: LOX IMVI
M14 = system: M14
MCF7 = system: MCF7
MDA-MB-231 = system: MDA-MB-231
MDA-MB-435 = system: MDA-MB-435
MDA-N = system: MDA-N
MOLT-4 = system: MOLT-4
Malme-3M = system: Malme-3M
NCI-H226 = system: NCI-H226
NCI-H23 = system: NCI-H23
NCI-H522 = system: NCI-H522
NCI/ADR-RES = system: NCI/ADR-RES
OVCAR-3 = system: OVCAR-3
OVCAR-4 = system: OVCAR-4
OVCAR-5 = system: OVCAR-5
OVCAR-8 = system: OVCAR-8
PC-3 = system: PC-3
SF-268 = system: SF-268
SF-539 = system: SF-539
SK-MEL-28 = system: SK-MEL-28
SK-MEL-2 = system: SK-MEL-2
SK-MEL-5 = system: SK-MEL-5
SK-OV-3 = system: SK-OV-3
SN12C = system: SN12C
SNB-19 = system: SNB-19
SR = system: SR
SW-620 = system: SW-620
T47D = system: T47D
TK-10 = system: TK-10
U-251 = system: U-251
UACC-257 = system: UACC-257
UACC-62 = system: UACC-62
UO-31 = system: UO-31
CAKI-1 = system: CAKI-1
CCRF-CEM = system: CCRF-CEM
NCI-H460 = system: NCI-H460
RXF 393 = system: RXF 393
SNB-75 = system: SNB-75
RPMI-8226 = system: RPMI-8226
SF-295 = system: SF-295

Measured: GI50

Cc1nn(CN2CCN(C)CC2)c(=S)n1/N=C/c1ccc(-c2ccc(Cl)cc2Cl)o1
47.2 µM: HCT-15
inactive: 786-0 50.1 µM | A498 19.2 µM | A549 > 100 µM | ACHN > 100 µM | BT-549 > 100 µM | COLO 205 > 100 µM | DU-145 > 100 µM | EKVX 14.8 µM | HCC 2998 > 100 µM | HCT-116 74.6 µM | HL-60 32.7 µM | HOP-62 > 100 µM | HOP-92 > 100 µM | HT-29 89.1 µM | Hs-578T > 100 µM | IGROV-1 81.8 µM | K562 50.8 µM | KM12 > 100 µM | LOX IMVI 60.7 µM | M14 > 100 µM | MCF7 33.4 µM | MDA-MB-231 63.8 µM | MDA-MB-435 36.1 µM | MDA-N 50.5 µM | MOLT-4 30.5 µM | Malme-3M > 100 µM | NCI-H226 29.4 µM | NCI-H23 71.6 µM | NCI-H522 > 100 µM | NCI/ADR-RES 62.7 µM | OVCAR-3 64 µM | OVCAR-4 37.4 µM | OVCAR-5 > 100 µM | OVCAR-8 51.3 µM | PC-3 68.7 µM | SF-268 92.5 µM | SF-539 35.9 µM | SK-MEL-28 > 100 µM | SK-MEL-2 > 100 µM | SK-MEL-5 43.3 µM | SK-OV-3 > 100 µM | SN12C > 100 µM | SNB-19 > 100 µM | SR 37 µM | SW-620 42.7 µM | T47D 21.2 µM | TK-10 43.9 µM | U-251 32.8 µM | UACC-257 66.7 µM | UACC-62 99.5 µM | UO-31 92.9 µM

Cc1cc(S(=O)(=O)Nc2nc(N)n(-c3cnc4ccccc4n3)n2)c(S)cc1Cl
inactive: 786-0 > 100 µM | A498 62.2 µM | A549 > 100 µM | ACHN > 100 µM | BT-549 16.6 µM | CAKI-1 95.3 µM | CCRF-CEM 37.1 µM | COLO 205 > 100 µM | DU-145 > 100 µM | EKVX > 100 µM | HCC 2998 > 100 µM | HCT-116 > 100 µM | HL-60 > 100 µM | HOP-62 69.5 µM | HOP-92 16.6 µM | HT-29 > 100 µM | Hs-578T 78.5 µM | IGROV-1 > 100 µM | K562 > 100 µM | KM12 60.4 µM | LOX IMVI > 100 µM | M14 > 100 µM | MCF7 > 100 µM | MDA-MB-231 > 100 µM | MDA-MB-435 > 100 µM | MDA-N > 100 µM | Malme-3M > 100 µM | NCI-H226 43.7 µM | NCI-H460 36.6 µM | NCI-H522 > 100 µM | NCI/ADR-RES > 100 µM | OVCAR-3 > 100 µM | OVCAR-4 > 100 µM | OVCAR-5 > 100 µM | OVCAR-8 > 100 µM | PC-3 > 100 µM | RXF 393 99.1 µM | SF-268 85.3 µM | SF-539 > 100 µM | SK-MEL-28 > 100 µM | SK-MEL-2 > 100 µM | SK-MEL-5 > 100 µM | SK-OV-3 85.7 µM | SN12C > 100 µM | SNB-19 39.1 µM | SNB-75 22.7 µM | SR > 10 µM | SW-620 > 100 µM | T47D > 100 µM | TK-10 > 100 µM | U-251 41.9 µM | UACC-257 > 100 µM | UACC-62 49.7 µM | UO-31 > 100 µM
> 100 µM: HCT-15

C/C(=C\c1ccccc1)C(=O)NCc1ccc(C(=O)NCCc2ccccc2)cc1
> 100 µM: HCT-15
inactive: 786-0 20.6 µM | A498 > 66.5 µM | A549 > 100 µM | ACHN > 94.6 µM | BT-549 28.9 µM | CAKI-1 > 93.3 µM | CCRF-CEM > 100 µM | COLO 205 > 100 µM | DU-145 > 100 µM | EKVX 22.5 µM | HCC 2998 > 100 µM | HCT-116 43.4 µM | HOP-62 3 µM | HOP-92 18.4 µM | HT-29 2.67 µM | Hs-578T 7.16 µM | IGROV-1 35.8 µM | K562 > 100 µM | KM12 > 100 µM | LOX IMVI > 100 µM | M14 > 100 µM | MCF7 > 100 µM | MDA-MB-231 > 43.2 µM | MDA-MB-435 > 100 µM | MDA-N > 100 µM | MOLT-4 > 100 µM | Malme-3M > 100 µM | NCI-H226 17.9 µM | NCI-H23 > 52.4 µM | NCI-H460 > 100 µM | NCI-H522 > 100 µM | NCI/ADR-RES > 39.9 µM | OVCAR-3 > 100 µM | OVCAR-4 > 100 µM | OVCAR-5 > 96.2 µM | OVCAR-8 3.47 µM | PC-3 > 100 µM | RPMI-8226 > 100 µM | RXF 393 13.8 µM | SF-268 4.37 µM | SF-295 27.7 µM | SF-539 10.1 µM | SK-MEL-28 > 100 µM | SK-MEL-2 20.9 µM | SK-MEL-5 > 100 µM | SK-OV-3 12.2 µM | SN12C 21.2 µM | SNB-19 9.42 µM | SNB-75 3.95 µM | SR > 100 µM | SW-620 > 100 µM | T47D > 89.7 µM | TK-10 41.9 µM | U-251 > 51.8 µM | UACC-257 > 100 µM | UACC-62 > 100 µM | UO-31 22 µM
